The values below come from patent US7157481B2 (priority 1997, dated 2007).

Series [1] concerns larvae of the mustard beetle (Phaedon cochleariae). The experiment in a line: Phaedon Larvae Test. The series is classed as in vivo. The conditions noted are these: cabbage leaves dipped, 0.1 % by weight active compound; after 7 days. The method, then: (§1) To produce a suitable preparation of active compound, 1 part by weight of active compound is mixed with the stated amounts of solvent and emulsifier, and the concentrate is diluted with water to the desired concentration.
Cabbage leaves (Brassica oleracea) are treated by being dipped into the preparation of active compound of the desired concentration and populated with larvae of the mustard beetle (Phaedon cochleariae) while the leaves are still moist.
After 7 days, the kill is determined and expressed in per cent. An efficacy of 100% means that all beetle larvae have been killed, while an efficacy of 0% means that no beetle larvae have been killed.

Series [2] relates to caterpillars of the diamond-back moth (Plutella xylostella). The experiment in a line: Plutella Test. The series is classed as in vivo. Particulars: cabbage leaves dipped, 0.1 % by weight active compound; after 7 days. As for the experimental part: as §1
Cabbage leaves (Brassica oleracea) are treated by being dipped into the preparation of active compound of the desired concentration and populated with caterpillars of the diamond-back moth (Plutella xylostella) while the leaves are still moist.
After 7 days, the kill is determined and expressed in per cent. An efficacy of 100% means that all caterpillars have been killed, while an efficacy of 0% means that none of the caterpillars have been killed.

Series [3] is described as follows: log P determination by HPLC (EEC Directive 79/831 Annex V. A8, gradient method). The series is classed as physicochemical. The conditions noted are these: acetonitrile/0.1% aqueous phosphoric acid.
For a further series, the system named is Venturia inaequalis. The experiment in a line: Venturia Test (Apple)/protective. Format: in vivo. Particulars: young apple plants sprayed at 100 g/ha, protective; evaluation 12 days after inoculation. The method, then:
Venturia Test (Apple)/protective
as §1
To test for protective activity, young plants are sprayed with the preparation of active compound at the stated application rate. After the spray coating has dried on, the plants are inoculated with an aqueous conidia suspension of the causative organism of apple scab Venturia inaequalis and then remain in an incubation cabin at approximately 20° C. and 100% relative atmospheric humidity for 1 day.
The plants are then placed in a greenhouse at approximately 21° C. and a relative atmospheric humidity of approximately 90%.
Evaluation is carried out 12 days after the inoculation. 0% means an efficacy which corresponds to that of the control, while an efficacy of 100% means that no infection is observed.

For a further series, the system named is Leptosphaeria nodorum. As to the kind of experiment: Leptosphaeria nodorum Test (Wheat)/protective. Format: in vivo. Particulars: young wheat plants sprayed at 250 g/ha, protective; evaluation 10 days after inoculation. As for the experimental part: Leptosphaeria nodorum Test (Wheat)/protective
as §1
To test for protective activity, young plants are sprayed with the preparation of active compound at the stated application rate. After the spray coating has dried on, the plants are sprayed with a spore suspension of Leptosphaeria nodorum. The plants remain in an incubation cabin at 20° C. and 100% relative atmospheric humidity for 48 hours.
The plants are then placed in a greenhouse at a temperature of approximately 15° C. and a relative atmospheric humidity of 80%.
Evaluation is carried out 10 days after the inoculation. 0% means an efficacy which corresponds to that of the control, while an efficacy of 100% means that no infection is observed.

A word on the melting point: it is the temperature of the solid-liquid transition. As to `O=C(NCCOS(=O)OCCNC(=O)c1snc(Cl)c1Cl)c1snc(Cl)c1Cl`, the melting point lay within 70 to 75 °C.

As for `CC(C)(C)CSCc1ccc(NC(=O)c2snc(Cl)c2Cl)cc1`, the melting point is 91 to 92 °C.

`CCC(CC)c1ccc(NC(=O)c2snc(Cl)c2Cl)cc1` registered a melting point of 98 to 99 °C. Still for that read-out and setting: the value for `CN(C=O)CNC(=O)c1snc(Cl)c1Cl` was 87 to 88 °C; that for `Cc1ccc(NC(=O)c2snc(Cl)c2Cl)c(C)c1` was 171 to 172 °C. As for `CC(C)(C)c1ccc(NC(=O)c2snc(Cl)c2Cl)cc1` [Example 3], the melting point lay within 148 to 149 °C. The “Kill in % after 7 d” value in series [1] was determined as 100%. The chromatographic logP is lipophilicity estimated from chromatographic retention. Read a high chromatographic logP as higher lipophilicity. As for `CC(C)(C)c1ccc(CCNC(=O)c2snc(Cl)c2Cl)cc1` [Example 4], the “Kill in % after 7 d” value in series [2] was found to be 100%. Further, in series [3], the chromatographic logP came to 4.81. In turn, `O=C(NCCc1cccc(Oc2ccc(Cl)cc2)c1)c1snc(Cl)c1Cl` [Example 6] gave a chromatographic logP in series [3] of 4.79. Moreover, the Efficacy in % with Venturia inaequalis was determined as 96%. Regarding `CCN(CC)Cc1ccc(CNC(=O)c2snc(Cl)c2Cl)cc1` [Example 14], in series [2], the “Kill in % after 7 d” value was 100%. For the same molecule, in series [3], the chromatographic logP stood at 1.39. `CCC(C)c1ccc(NC(=O)c2snc(Cl)c2Cl)cc1` (stereo not drawn) [Example 16] had a melting point of 83 to 85 °C. The molecule further yielded an Efficacy in % in the series with Leptosphaeria nodorum of 81%. With `O=C(Nc1ccccc1C1CCCCCC1)c1snc(Cl)c1Cl` [Example 20], the melting point fell in the range of 122 to 125 °C. Moreover, the “Kill in % after 7 d” value in series [2] worked out at 100%. For `O=C(Nc1ccccc1-c1ccccc1)c1snc(Cl)c1Cl` [Example 21], in that order: 83 to 84 °C (dec.) and 100%. Taken in the same sequence, the figures for `O=C(NCCc1ccc(-c2ccc(Cl)cc2)cc1)c1snc(Cl)c1Cl` [Example 23] were 135 to 136 °C and 100%.
